Laboratory results published in publication PMC8760490, “Discovery of novel furanylbenzamide inhibitors that target oncogenic tyrosine phosphatase SHP2 in leukemia cells” (The Journal of Biological Chemistry, 2021).

Experiments:
[1] = system: phospho-ERK1/2 (p-ERK1/2) in U-937 AML cells; experiment: p-ERK1/2 immunoblot, U-937; assay type: cell-based; settings: SBI-4668 1, 3, 10, 30 μM, RMC-4550 1 μM
Excerpt: (§1) Oncogenic gain-of-function mutations in SHP2 drive leukemogenesis in a significant number of leukemia patients. However, because of their unique mechanism of action, the existing SHP2 allosteric inhibitors lack activity against the most common SHP2 oncogenic variants. Thus, we tested whether our inhibitors could inhibit the growth of leukemia cells expressing oncogenic SHP2 variants. […] Thus, we tested both SBI-4668 and RMC-4550 on U-937 AML cells, which harbor a G60R oncogenic mutation in SHP2. We treated cells with either SBI-4668 or RMC-4550 at various concentrations, ranging from 0.123 to 30 μM (Fig. 5A). […] We also assessed the effects of SBI-4668 and RMC-4550 on ERK1/2 activation in the SHP2 mutant U-937 cell line. Similar to the immunoblot experiments described for MOLM-13 cells above, U-937 AML cells were treated with either vehicle control (DMSO), SBI-4668 (1, 3, 10, or 30 μM), or with RMC-4550 (1 μM) for 24 h and processed for p-ERK1/2 immunoblot analysis (Fig. 5B).
Cells cultured in RPMI medium were treated as indicated in the legends to the figures. […] Densitometric quantitation of immunoblots was performed using Image Studio Lite Software (LI-COR). Changes of phosphorylated ERK1/2 to total ERK1/2 ratios are expressed as percentage of the vehicle-treated controls. […]

[2] = system: phospho-ERK1/2 (p-ERK1/2) in MOLM-13 AML cells; experiment: p-ERK1/2 immunoblot, MOLM-13; assay type: cell-based; settings: 3 h; SBI-4668 3, 10, 30 μM; RMC-4550 1 μM
Experimental: (§2) Because SHP2 activity is critical for ERK activation, we used phospho-ERK1/2 (p-ERK1/2) as a more direct readout of SHP2 inhibitor efficacy. […] This p-ERK rebound in MOLM-13 cells treated with RMC-4550 is reminiscent of previously reported data from human hepatoma Hep3B cells treated with SHP099 ([34]). We also tested the effects of SBI-4668 or RMC-4550 on two patient-derived AML samples (Fig. 4F).
Cells cultured in RPMI medium were treated as indicated in the legends to the figures. Total protein extracts were prepared in modified radioimmunoprecipitation assay lysis buffer (25 mM Tris–HCl, pH 7.4, 10% glycerol, 0.2% Triton X-100, 150 mM NaCl, 2 mM Na3VO4, and 1 mM EDTA) containing a protease inhibitor cocktail (Roche Applied Science). Equal amounts of protein were separated on 4 to 12% (p-ERK1/2 blots) or 4 to 20% (SHP2 blots) Bis–Tris gels by SDS-PAGE and transferred to nitrocellulose (p-ERK1/2 blots) or 0.2 μm polyvinylidene fluoride (SHP2 blots) membranes. Membranes were blocked in 5% dry milk (Bio-Rad) in Tris-buffered saline–Tween-20 (TBS–T) (0.1% v/v) for 1 h at RT. Protein-bound membranes were incubated with indicated primary antibody overnight at 4 °C. After washing three times with TBS-T, membranes were incubated for 1 h with horseradish peroxidase–conjugated secondary antibody and then visualized by an ECL Prime detection system (GE Healthcare). Immunoblotting experiments were carried out at least three times, and representative images are shown. Densitometric quantitation of immunoblots was performed using Image Studio Lite Software (LI-COR). Changes of phosphorylated ERK1/2 to total ERK1/2 ratios are expressed as percentage of the vehicle-treated controls. The following antibodies were used: Phospho-Erk1/2 Ab (catalog no.: 9101S; Cell Signaling); total Erk1/2 Ab (catalog no.: 9102S; Cell Signaling); SHP2 Ab (catalog no.: A301-544A; lot no.: 1; Bethyl); and GAPDH (14C10) mAb (catalog no.: 2118S; lot no.: 14; Cell Signaling).

[3] = system: U-937 AML cells (G60R oncogenic mutation in SHP2); experiment: Cell viability (CellTiter-Glo), U-937; assay type: cell-based; settings: 3 days, 0.123 to 30 μM
Excerpt: as §1, with “Similar to the immunoblot experiments described for MOLM-13 cells above, U-937 AML cells were treated with either vehicle control (DMSO), SBI-4668 (1, 3, 10, or 30 μM), or with RMC-4550 (1 μM) for 24 h and processed for p-ERK1/2 immunoblot analysis (Fig. 5B).” left out
(§3) Viability of AML and esophageal carcinoma cells was assessed using the ATP-depletion assay CellTiter-Glo (Promega). Cells were harvested at 1 × 10^6/ml to 2 × 10^6 cells/ml with cell numbers determined by trypan blue using the Countess Cell counter (Thermo Scientific) and resuspended in culture media. […] Luminescence was read on a Tecan Spark Multimode Microplate Reader, and data were analyzed using GraphPad Prism software.

[4] = system: mutant SHP2 (E76K) in live cells; design: method as in PMID 31953320, PMID 32744526; settings: cellular thermal shift assay; cited from earlier work
[5] = system: patient-derived AML cells; experiment: Viability of patient-derived AML cells; assay type: cell-based, human; settings: 10 μM; 2, 4 or 6 days in culture
Excerpt: as §2
Patient-derived AML cells were obtained from Carol Burian and Dr James Mason (Scripps MD Anderson Center) under approved Institutional Review Board protocol 13-6180. […] Final peripheral blood mononuclear cells were resuspended in Bambanker serum-free freezing medium (Wako Pure Chemical Industries, Ltd) and stored frozen before cell viability was assessed as described later.
as §3

For `Cc1nc(N2CCC3(CC2)CO[C@@H](C)[C@H]3N)c(CO)nc1-c1cccc(Cl)c1Cl` [RMC-4550, reference compound], the “p-ERK1/2 levels, U-937, 24 h” value [1] was “not detectable”, the “p-ERK1/2 levels, MOLM-13, 3 h” value [2] was “highly effective in impeding ERK1/2 activation” and the IC50 [3] was 33 µM. The “cellular target engagement with mutant SHP2” value [4] was “greatly decreased cellular target engagement” and the “growth of two patient-derived AML samples” value [5] was “only affected the growth of sample 2”.
